The record followed here is patent EP4755886A1 (Chengdu Chipscreen Pharmaceutical Ltd., priority 2023, dated 2025).

In test [1] the test system is wild-type HCT-116 cells. The experiment in a line: Cell proliferation (MTS), wild-type HCT-116. The test is classed as cell-based. Conditions: Homo sapiens, 240 h; wild-type HCT-116, 10 days with compound, MTS reading; read-out: IC50 HCT116 WT. The procedure:
(§1) MTAP^-/- HCT-116 and wild-type HCT-116 cell strains were cultured in complete medium McCoy's 5A (Gibco, 16600082)/10% FBS (Gibco, 10099141C)/1% p/s (Gibco, 15140122) to evaluate the enhanced inhibitory effect of the compounds against the proliferation selectivity of MTAP^-/- HCT-116 cells. On day 0, MTAP^-/- HCT-116 cells or wild-type HCT-116 cells were added to a 96-well cell culture plate (Corning, 3599) at 100 cells/well, and the plate was incubated in an incubator at 37 °C with 5% CO2. The compound was diluted in a 3-fold gradient with DMSO (Sigma, D5879) (initial concentration: 20 µM, 3-fold dilution, 8 concentration points in total). On day 1, the compound was diluted to multiple concentration points, and the cells were treated separately and incubated in the incubator at 37 °C with 5% CO2 for another 10 days. On Day 11, 20 µL of MTS (CellTiter 96® AQueous One Solution Cell Proliferation Assay) (Promega, G3581) was added to each well. […] In the formula, Y represents the inhibition rate, X represents the logarithm of the compound concentration, Top represents the maximum response (the inhibition rate at the maximum compound concentration), Bottom represents the baseline response (the inhibition rate where the compound concentration was 0), Hill Slope represents the slope of the IC50 curve, and IC50 represents the half maximal inhibitory concentration. Table 1. IC50 (µM)

Test [2] deals with MTAP^-/- HCT-116 cells. The experiment in a line: Cell proliferation (MTS), MTAP-/- HCT-116. The test is classed as cell-based, human. To be noted: for Selectivity: HCT116 WT IC50 relative to HCT116 MTAP-/- IC50; for IC50: Homo sapiens, 240 h, MTAP-/- HCT-116, 10 days with compound, MTS reading, read-out: IC50 HCT116 MTAP-/-.
Description: The colon cancer cell strain HCT-116 (purchased from Nanjing Cobioer) was co-transfected with the gene editing tool CRISPR/Cas9 and sgRNA, and the MTAP^-/- HCT-116 cell strain with biallelic inactivation of MTAP was obtained by assays such as Western Blotting and Sanger sequencing. The MTAP^-/- HCT-116 cell strain was used for compound selectivity screening and evaluation based on the synergistic mechanism of MTAP deletion and PRMT5, including a symmetric dimethylarginine (SDMA) level test, a cell proliferation test, and the like.
as §1, with “On” for “MTAP^-/- HCT-116 and wild-type HCT-116 cell strains were cultured in complete medium McCoy's 5A (Gibco, 16600082)/10% FBS (Gibco, 10099141C)/1% p/s (Gibco, 15140122) to evaluate the enhanced inhibitory effect of the compounds against the proliferation selectivity of MTAP^-/- HCT-116 cells. On”, “concentration.” for “concentration. Table 1. IC50 (µM)”

Structures are written as SMILES.

Turning to `Cc1c(C#Cc2ccc3c(c2)OCC3N(C)C(=O)c2cc3c(cc2F)nc(N)c2cnn(C)c23)cnn1C` (stereo not drawn) [Compound 23, 4-amino-N-(6-((1,5-dimethyl-1H-pyrazol-4-yl)ethynyl)-2,3-dihydrobenzofuran-3-yl)-7-fluoro-N,1-dimethyl-1H-pyrazolo[4,3-c]quinoline-8-carboxamide], in test [1], the IC50 was 0.307 µM. Also, in test [2], the Selectivity was found to be 77 and the IC50 was 0.004 µM.

Turning to `CN(C(=O)c1cc2c(cc1F)nc(N)c1cnn(C)c12)C1COc2cc(C#Cc3cn(C)nc3Cl)ccc21` (stereo not drawn) [Compound 24, 4-amino-N-(6-((3-chloro-1-methyl-1H-pyrazol-4-yl)ethynyl)-2,3-dihydrobenzofuran-3-yl)-7-fluoro-N,1-dimethyl-1H-pyrazolo[4,3-c]quinoline-8-carboxamide], the IC50 in test [1] turned out to be 0.115 µM; in test [2], 0.0019 µM. For the same molecule, the Selectivity in test [2] amounted to 61.

On to `Cc1nn(C)cc1C#Cc1ccc2c(c1)OCC2N(C)C(=O)c1cc2c(cc1F)nc(N)c1cnn(C)c12` (stereo not drawn) [Compound 25, 4-amino-N-(6-((1,3-dimethyl-1H-pyrazol-4-yl)ethynyl)-2,3-dihydrobenzofuran-3-yl)-7-fluoro-N,1-dimethyl-1H-pyrazolo[4,3-c]quinoline-8-carboxamide], for which the IC50 in test [1] stood at 0.471 µM. In test [2], the Selectivity worked out at 100 and the IC50 is 0.0047 µM.

In the case of `CCN(C(=O)c1cc2c(cc1F)nc(N)c1cnn(C)c12)C1COc2cc(C#Cc3cnn(C)c3)ccc21` (stereo not drawn) [Compound 27, 4-amino-N-ethyl-7-fluoro-1-methyl-N-(6-((1-methyl-1H-pyrazol-4-yl)ethynyl)-2,3-dihydrobenzofuran-3-yl)-1H-pyrazolo[4,3-c]quinoline-8-carboxamide], the IC50 in test [1] turned out to be 0.185 µM. In addition, in test [2], the Selectivity is 58 and the IC50 stood at 0.0032 µM.

As to `Cc1c(C#Cc2ccc3c(c2)OCC3N(C)C(=O)c2ccc3nc(N)c4cnn(C)c4c3c2)cnn1C` (stereo not drawn) [Compound 29, 4-amino-N-(6-((1,5-dimethyl-1H-pyrazol-4-yl)ethynyl)-2,3-dihydrobenzofuran-3-yl)-N,1-dimethyl-1H-pyrazolo[4,3-c]quinoline-8-carboxamide], the IC50 in test [1] is 1.5 µM; in test [2] it was 0.0098 µM. Further, in test [2], the Selectivity was 153.

Consider `Cc1c(C#Cc2ccc3c(c2)OC[C@H]3N(C)C(=O)c2ccc3nc(N)c4cnn(C)c4c3c2)cnn1C` [Compound 29A, (S)-4-amino-N-(6-((1,5-dimethyl-1H-pyrazol-4-yl)ethynyl)-2,3-dihydrobenzofuran-3-yl)-N,1-dimethyl-1H-pyrazolo[4,3-c]quinoline-8-carboxamide], for which the IC50 in test [1] amounted to 0.48 µM. In addition, in test [2], the Selectivity is on record as 133 and the IC50 is 0.0036 µM.

For `CN(C(=O)c1ccc2nc(N)c3cnn(C)c3c2c1)[C@@H]1COc2cc(C#Cc3cnn(C(F)F)c3)ccc21` [Compound 30A, (S)-4-amino-N-(6-((1-(difluoromethyl)-1H-pyrazol-4-yl)ethynyl)-2,3-dihydrobenzofuran-3-yl)-N,1-dimethyl-1H-pyrazolo[4,3-c]quinoline-8-carboxamide], in test [1], the IC50 stood at 0.24 µM. Further, in test [2], the Selectivity was determined as 83 and the IC50 worked out at 0.0029 µM.

In the case of `CN(C(=O)c1ccc2nc(N)c3cnn(C)c3c2c1)C1COc2cc(C#Cc3cn(C)nc3C(F)(F)F)ccc21` (stereo not drawn) [Compound 31, 4-amino-N,1-dimethyl-N-(6-((1-methyl-3-(trifluoromethyl)-1H-pyrazol-4-yl)ethynyl)-2,3-dihydrobenzofuran-3-yl)-1H-pyrazolo[4,3-c]quinoline-8-carboxamide], the IC50 in test [1] was found to be 1.46 µM. In test [2], the Selectivity was found to be 102 and the IC50 was found to be 0.0142 µM.

In the case of `CN(C(=O)c1ccc2nc(N)c3cnn(C)c3c2c1)[C@@H]1COc2cc(C#Cc3cn(C)nc3C(F)(F)F)ccc21` [Compound 31A, (S)-4-amino-N,1-dimethyl-N-(6-((1-methyl-3-(trifluoromethyl)-1H-pyrazol-4-yl)ethynyl)-2,3-dihydrobenzofuran-3-yl)-1H-pyrazolo[4,3-c]quinoline-8-carboxamide], in test [1], the IC50 turned out to be 0.192 µM. In addition, in test [2], the Selectivity is on record as 58 and the IC50 was 0.0033 µM.

As for `CN(C(=O)c1cc2c(cc1F)nc(N)c1cnn(C)c12)C1COc2cc(C#Cc3cn(C)nc3C(F)(F)F)ccc21` (stereo not drawn) [Compound 32, 4-amino-7-fluoro-N,1-dimethyl-N-(6-((1-methyl-3-(trifluoromethyl)-1H-pyrazol-4-yl)ethynyl)-2,3-dihydrobenzofuran-3-yl)-1H-pyrazolo[4,3-c]quinoline-8-carboxamide], the IC50 in test [1] turned out to be 2.27 µM. In test [2], the Selectivity is reported as 103 and the IC50 came to 0.022 µM.

Turning to `CN(C(=O)c1cc2c(cc1F)nc(N)c1cnn(C)c12)C1COc2nc(C#Cc3cnn(C)c3)ccc21` (stereo not drawn) [Compound 33, 4-amino-7-fluoro-N,1-dimethyl-N-(6-((1-methyl-1H-pyrazol-4-yl)ethynyl)-2,3-dihydrofuro[2,3-b]pyridin-3-yl)-1H-pyrazolo[4,3-c]quinoline-8-carboxamide], the IC50 in test [1] came out at 0.567 µM. Further, in test [2], the Selectivity was determined as 129 and the IC50 is 0.0044 µM.

With `CN(C(=O)c1ccc2nc(N)c3cnn(C)c3c2c1)C1COc2cc(C#Cc3cn(C)nc3Cl)ccc21` (stereo not drawn) [Compound 34, 4-amino-N-(6-((3-chloro-1-methyl-1H-pyrazol-4-yl)ethynyl)-2,3-dihydrobenzofuran-3-yl)-N,1-dimethyl-1H-pyrazolo[4,3-c]quinoline-8-carboxamide], in test [1], the IC50 was 1.14 µM. In test [2], the Selectivity is given as 150 and the IC50 was found to be 0.0076 µM.

Take `CN(C(=O)c1ccc2nc(N)c3cnn(C)c3c2c1)[C@@H]1COc2cc(C#Cc3cn(C)nc3Cl)ccc21` [Compound 34A, (S)-4-amino-N-(6-((3-chloro-1-methyl-1H-pyrazol-4-yl)ethynyl)-2,3-dihydrobenzofuran-3-yl)-N,1-dimethyl-1H-pyrazolo[4,3-c]quinoline-8-carboxamide]: the IC50 in test [1] turned out to be 0.266 µM; in test [2], 0.002 µM. In addition, in test [2], the Selectivity was 133.

Consider `CN(C(=O)c1cc2c(cc1F)nc(N)c1cnn(C)c12)C1COc2cc(C#Cc3ccnn3C)ccc21` (stereo not drawn) [Compound 36, 4-amino-7-fluoro-N,1-dimethyl-N-(6-((1-methyl-1H-pyrazol-5-yl)ethynyl)-2,3-dihydrobenzofuran-3-yl)-1H-pyrazolo[4,3-c]quinoline-8-carboxamide], for which the IC50 in test [1] was found to be 1.73 µM; in test [2], 0.0137 µM. In test [2], the Selectivity was found to be 126.

For the molecule `Cc1cn(C)nc1C#Cc1ccc2c(c1)OCC2N(C)C(=O)c1cc2c(cc1F)nc(N)c1cnn(C)c12` (stereo not drawn) [Compound 37, 4-amino-N-(6-((1,4-dimethyl-1H-pyrazol-3-yl)ethynyl)-2,3-dihydrobenzofuran-3-yl)-7-fluoro-N,1-dimethyl-1H-pyrazolo[4,3-c]quinoline-8-carboxamide], the IC50 turned out to be 2.04 µM in test [1] and 0.022 µM in test [2]. The Selectivity in test [2] was 93.

Regarding `CN(C(=O)c1cc2c(cc1F)nc(N)c1cnn(C)c12)C1COc2cc(C#Cc3cnn(C(F)F)c3)ccc21` (stereo not drawn) [Compound 41, 4-amino-N-(6-((1-(difluoromethyl)-1H-pyrazol-4-yl)ethynyl)-2,3-dihydrobenzofuran-3-yl)-7-fluoro-N,1-dimethyl-1H-pyrazolo[4,3-c]quinoline-8-carboxamide], the IC50 in test [1] came out at 1.78 µM. Moreover, in test [2], the Selectivity is given as 129 and the IC50 came out at 0.0138 µM.

For the molecule `CN(C(=O)c1cc2c(cc1F)nc(N)c1cnn(C)c12)C1COc2cc(C#Cc3cnccc3C(F)F)ccc21` (stereo not drawn) [Compound 42, 4-amino-N-(6-((4-(difluoromethyl)pyridin-3-yl)ethynyl)-2,3-dihydrobenzofuran-3-yl)-7-fluoro-N,1-dimethyl-1H-pyrazolo[4,3-c]quinoline-8-carboxamide], the IC50 in test [1] worked out at 0.785 µM. Also, in test [2], the Selectivity amounted to 42 and the IC50 was 0.0185 µM.
